# Tests used:
# [1] = target: Serotonin receptor 2a and 2c (5HT2A and 5HT2C) (Rattus norvegicus) (UniProt P08909+P14842)
# Description: Hill coefficient of compound was determined
# [2] = target: T1, Serotonin receptor 2a and 2c (5HT2A and 5HT2C) (Rattus norvegicus, UniProt P08909+P14842); experiment: Binding affinity at 5-hydroxytryptamine 2 receptor determined using [125I]- DOI as radioligand in rat frontal cortex; assay type: tissue-based
# [3] = target: T1, Serotonin receptor 2a and 2c (5HT2A and 5HT2C); experiment: Binding affinity at [3H]DOB labeled sites of 5-hydroxytryptamine 2 receptor determined using [125I]- DOI as radioligand in rat frontal cortex; assay type: tissue-based
# [4] = target: T1, Serotonin receptor 2a and 2c (5HT2A and 5HT2C); experiment: Binding affinity at [3H]KET labeled sites of 5-hydroxytryptamine 2 receptor determined using [125I]- DOI as radioligand in rat frontal cortex; assay type: tissue-based
# [5] = target: T1, Serotonin receptor 2a and 2c (5HT2A and 5HT2C); experiment: Binding affinity at [3H]DOB labeled sites of 5-hydroxytryptamine 2 receptor was determined using [125I]- DOI as radioligand in rat frontal cortex; assay type: tissue-based
# [6] = target: T1, Serotonin receptor 2a and 2c (5HT2A and 5HT2C); experiment: Binding affinity at [3H]KET labeled sites of 5-hydroxytryptamine 2 receptor was determined using [125I]- DOI as radioligand in rat frontal cortex; assay type: tissue-based
# Chain of Serotonin receptor 2a and 2c (5HT2A and 5HT2C) (Rattus norvegicus) (P08909 whole entry, looked up): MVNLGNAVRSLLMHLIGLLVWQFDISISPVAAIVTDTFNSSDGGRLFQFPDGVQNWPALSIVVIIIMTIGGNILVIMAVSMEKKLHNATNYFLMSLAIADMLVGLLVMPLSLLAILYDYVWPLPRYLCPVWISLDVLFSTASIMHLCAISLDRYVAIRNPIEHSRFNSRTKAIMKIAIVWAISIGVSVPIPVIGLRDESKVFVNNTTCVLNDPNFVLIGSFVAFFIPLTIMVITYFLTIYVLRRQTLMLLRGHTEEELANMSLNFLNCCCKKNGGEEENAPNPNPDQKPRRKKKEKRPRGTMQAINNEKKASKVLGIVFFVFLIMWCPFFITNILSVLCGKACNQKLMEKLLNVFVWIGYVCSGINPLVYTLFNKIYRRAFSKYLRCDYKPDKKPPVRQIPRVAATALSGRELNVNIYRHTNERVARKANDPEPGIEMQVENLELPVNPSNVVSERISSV
# Chain of Serotonin receptor 2a and 2c (5HT2A and 5HT2C) (Rattus norvegicus) (P14842 whole entry, looked up): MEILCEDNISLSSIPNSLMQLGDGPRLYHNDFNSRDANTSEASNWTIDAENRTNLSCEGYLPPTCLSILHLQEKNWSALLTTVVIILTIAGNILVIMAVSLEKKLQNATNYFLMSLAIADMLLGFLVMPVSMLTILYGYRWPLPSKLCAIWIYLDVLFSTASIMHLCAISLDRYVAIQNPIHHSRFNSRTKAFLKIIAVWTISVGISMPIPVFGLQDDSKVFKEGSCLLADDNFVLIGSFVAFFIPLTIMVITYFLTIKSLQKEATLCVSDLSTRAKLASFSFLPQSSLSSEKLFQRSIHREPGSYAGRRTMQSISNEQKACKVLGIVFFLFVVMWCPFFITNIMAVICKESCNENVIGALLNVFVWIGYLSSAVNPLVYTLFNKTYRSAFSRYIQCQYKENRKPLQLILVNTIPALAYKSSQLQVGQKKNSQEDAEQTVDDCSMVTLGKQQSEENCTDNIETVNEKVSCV
Compound,nH [1],Ki [2],other results
COc1cc(C[C@@H](C)N)c(OC)cc1Br,0.84,,
NCCc1c[nH]c2ccc(O)cc12,0.9,,
O=C(CCCN1CCC2(CC1)C(=O)NCN2c1ccccc1)c1ccc(F)cc1,0.75,,
O=C(c1ccc(F)cc1)C1CCN(CCn2c(=O)[nH]c3ccccc3c2=O)CC1,0.87,,
COc1cc(CC(C)N)c(OC)cc1I (racemic),0.89,2.8 nM,Ki [3]: 0.7 nM; Ki [4]: 20 nM
CN(C)CCCSc1ccccc1NC(=O)/C=C/c1ccccc1 [CINANSERIN],0.76,5 nM,Ki [5]: 3.8 nM; Ki [6]: 4.5 nM
